Data reported in patent US10035790B2, “RORγ modulators” (BRISTOL-MYERS SQUIBB COMPANY, priority 2012, dated 2018).

The compounds below were run against T1, ligand binding domain of human RORγ (A262-S507) (Homo sapiens, UniProt P51449) (assay: General RORγ SPA binding assay (competition with [3H]25-hydroxycholesterol)). Conditions: RORγ SPA binding assay, inhibition of [3H]25-hydroxycholesterol binding; read-out: IC50.
T1 construct: made in house; host or cells: E. coli
T1 sequence (P51449 262-507): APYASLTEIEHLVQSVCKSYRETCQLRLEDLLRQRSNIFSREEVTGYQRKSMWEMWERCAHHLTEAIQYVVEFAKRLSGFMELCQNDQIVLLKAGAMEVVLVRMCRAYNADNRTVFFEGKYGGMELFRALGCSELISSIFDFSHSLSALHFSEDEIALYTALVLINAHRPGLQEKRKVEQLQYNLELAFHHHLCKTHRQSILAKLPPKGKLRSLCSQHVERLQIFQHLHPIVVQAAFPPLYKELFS
How it was run: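 N-terminally His-tagged protein was expressed in E. coli and nickel-purified. Then 50 nM protein was preincubated with compound for 15 min at room temperature in PBS with 0.5% fatty acid free BSA, followed by radioligand for 15 min and copper His-tag SPA beads for 30 min. IC50 came from percent inhibition of binding.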

Question: `Cc1nc(C)c(-c2nnc(-c3ccnc(C(F)(F)F)n3)o2)c(C2CCN(C(=O)Nc3c(Cl)cccc3Cl)CC2)n1` [Compound C31, N-(2,6-dichlorophenyl)-4-(2,6-dimethyl-5-{5-[2-(trifluoromethyl)pyrimidin-4-yl]-1,3,4-oxadiazol-2-yl}pyrimidin-4-yl)piperidine-1-carboxamide] was tested. Which IC50 did it give?
Answer: The IC50 was 49.6 nM.

Question: `Cc1nc(C)c(-c2nnc(-c3ccnc(C(F)(F)F)n3)o2)c(C2CCN(C(=O)Nc3ccccc3OC(F)(F)F)CC2)n1` [Compound C32, 4-(2,6-dimethyl-5-{5-[2-(trifluoromethyl)pyrimidin-4-yl]-1,3,4-oxadiazol-2-yl}pyrimidin-4-yl)-N-{2-[(trifluoromethyl)oxy]phenyl}piperidine-1-carboxamide] was tested. Which IC50 did it give?
Answer: The IC50 was 159 nM.

Question: For `Cc1nc(C)c(-c2nnc(-c3ccnc(C(F)(F)F)n3)o2)c(C2CCN(S(=O)(=O)c3c(F)cccc3F)CC2)n1` [Compound C33, 4-{1-[(2,6-Difluorophenyl)sulfonyl]piperidin-4-yl}-2,6-dimethyl-5-{5-[2-(trifluoromethyl)pyrimidin-4-yl]-1,3,4-oxadiazol-2-yl}pyrimidine], which IC50 is on record?
Answer: The IC50 was 844 nM.

Question: How did the IC50 turn out when `Cc1nc(C)c(-c2nnc(-c3ccnc(C(F)(F)F)n3)o2)c(C2CCN(S(=O)(=O)Cc3ccccc3F)CC2)n1` [Compound C34, 4-(1-{[(2-Fluorophenyl)methyl]sulfonyl}piperidin-4-yl)-2,6-dimethyl-5-{5-[2-(trifluoromethyl)pyrimidin-4-yl]-1,3,4-oxadiazol-2-yl}pyrimidine] was run?
Answer: Its IC50 is 87.1 nM.

Question: How did the IC50 turn out when `Cc1nc(C)c(-c2nnc(-c3ccnc(C(F)(F)F)n3)o2)c(C2CCN(C(=O)[C@H](C)c3c(F)cccc3F)CC2)n1` [Compound C35, (R)-2-(2,6-Difluorophenyl)-1-(4-(2,6-dimethyl-5-(5-(2-(trifluoromethyl)pyrimidin-4-yl)-1,3,4-oxadiazol-2-yl)pyrimidin-4-yl)piperidin-1-yl)propan-1-one] was run?
Answer: Its IC50 is 608 nM.

Question: How did the IC50 turn out when `Cc1nc(C)c(-c2nnc(-c3ccnc(C(F)(F)F)n3)o2)c(C2CCN(C(=O)N(C)c3c(F)cccc3F)CC2)n1` [Compound C36, N-(2,6-Difluorophenyl)-4-(2,6-dimethyl-5-(5-(2-(trifluoromethyl)pyrimidin-4-yl)-1,3,4-oxadiazol-2-yl)pyrimidin-4-yl)-N-methylpiperidine-1-carboxamide] was run?
Answer: The IC50 was 155 nM.

Question: With `[2H]C([2H])c1nc(C)c(-c2nnc(-c3ccnc(C(F)(F)F)n3)o2)c(C2CCN(C(=O)C([2H])c3c(F)cccc3F)CC2)n1` (stereo not shown) [Compound C37, 4-{1-[(2,6-Difluorophenyl)acetyl-2-d]piperidin-4-yl}-2-methyl-d2-6-methyl-5-{5-[2-(trifluoromethyl)pyrimidin-4-yl]-1,3,4-oxadiazol-2-yl}pyrimidine] as the compound, how does the IC50 read?
Answer: The IC50 was 22.1 nM.

Question: For `[2H]C([2H])(C(=O)N1CCC(c2nc(C)nc(C)c2-c2nnc(-c3ccnc(C(F)(F)F)n3)o2)CC1)c1c(F)cccc1F` [Compound C38, 4-{1-[(2,6-Difluorophenyl)acetyl-2,2-d2]piperidin-4-yl}-2,6-dimethyl-5-{5-[2-(trifluoromethyl)pyrimidin-4-yl]-1,3,4-oxadiazol-2-yl}pyrimidine], which IC50 is on record?
Answer: The IC50 was 8 nM.

Question: Which IC50 does the source give for `Cc1nc(C)c(-c2nnc(-c3ccnc(C(F)(F)F)n3)s2)c(C2CCN(C(=S)Cc3c(F)cccc3F)CC2)n1` [Compound C39, 4-{1-[2-(2,6-Difluorophenyl)ethanethioyl]piperidin-4-yl}-2,6-dimethyl-5-{5-[2-(trifluoromethyl)pyrimidin-4-yl]-1,3,4-thiadiazol-2-yl}pyrimidine] here?
Answer: The IC50 was 4520 nM.

Question: With `Cc1nc(C)c(-c2nnc(-c3ccnc(C(F)(F)F)n3)o2)c(C2CCN(C(=O)Nc3c(F)cccc3C(F)(F)F)CC2)n1` [Compound C40, 4-(2,6-Dimethyl-5-{5-[2-(trifluoromethyl)pyrimidin-4-yl]-1,3,4-oxadiazol-2-yl}pyrimidin-4-yl)-N-[2-fluoro-6-(trifluoromethyl)phenyl]piperidine-1-carboxamide] as the compound, how does the IC50 read?
Answer: Its IC50 is 47.5 nM.

Question: `Cc1nc(C)c(-c2nnc(-c3ccnc(C(F)(F)F)n3)o2)c(C2CCN(C(=O)Cc3ccccc3Cl)CC2)n1` [Compound C41, 4-{1-[(2-Chlorophenyl)acetyl]piperidin-4-yl}-2,6-dimethyl-5-{5-[2-(trifluoromethyl)pyrimidin-4-yl]-1,3,4-oxadiazol-2-yl}pyrimidine] was tested. Which IC50 did it give?
Answer: Its IC50 is 20.5 nM.

Question: With `Cc1nc(C)c(-c2nnc(-c3ccnc(C(F)(F)F)n3)o2)c(C2CCN(C(=O)Cc3ncccc3Cl)CC2)n1` [Compound C42, 4-{1-[(3-Chloropyridin-2-yl)acetyl]piperidin-4-yl}-2,6-dimethyl-5-{5-[2-(trifluoromethyl)pyrimidin-4-yl]-1,3,4-oxadiazol-2-yl}pyrimidine] as the compound, how does the IC50 read?
Answer: The IC50 was 240 nM.

Question: How did the IC50 turn out when `Cc1nc(C)c(-c2nnc(-c3ccnc(C(F)(F)F)n3)o2)c(C2CCN(C(=O)C(F)(F)c3c(F)cccc3F)CC2)n1` [Compound C43, 4-{1-[(2,6-difluorophenyl)(difluoro)acetyl]piperidin-4-yl}-2,6-dimethyl-5-{5-[2-(trifluoromethyl)pyrimidin-4-yl]-1,3,4-oxadiazol-2-yl}pyrimidine] was run?
Answer: The IC50 was 11.2 nM.

Question: `Cc1nc(C)c(-c2nnc(-c3ccnc(C(F)(F)F)n3)o2)c(C2CCN(C(=O)C(F)(F)c3ccccc3F)CC2)n1` [Compound C44, 4-{1-[Difluoro(2-fluorophenyl)acetyl]piperidin-4-yl}-2,6-dimethyl-5-{5-[2-(trifluoromethyl)pyrimidin-4-yl]-1,3,4-oxadiazol-2-yl}pyrimidine] was tested. Which IC50 did it give?
Answer: The IC50 was 3.2 nM.

Question: With `Cc1nc(C)c(-c2nnc(-c3ccnc(C(F)(F)F)n3)o2)c(C2CCN(C(=O)Oc3ccccc3Cl)CC2)n1` [Compound C45, 2-Chlorophenyl 4-(2,6-dimethyl-5-{5-[2-(trifluoromethyl)pyrimidin-4-yl]-1,3,4-oxadiazol-2-yl}pyrimidin-4-yl)piperidine-1-carboxylate] as the compound, how does the IC50 read?
Answer: The IC50 was 42.8 nM.

Question: With `Cc1nc(C)c(-c2nnc(-c3ccnc(C(F)(F)F)n3)o2)c(C2CCN(C(=S)Nc3c(F)cccc3F)CC2)n1` [Compound C46, N-(2,6-Difluorophenyl)-4-(2,6-dimethyl-5-{5-[2-(trifluoromethyl)pyrimidin-4-yl]-1,3,4-oxadiazol-2-yl}pyrimidin-4-yl)piperidine-1-carbothioamide] as the compound, how does the IC50 read?
Answer: Its IC50 is 123 nM.

Question: With `Cc1nc(C)c(-c2nnc(-c3ccnc(C(F)(F)F)n3)o2)c(C2CCN(C(=S)Nc3ccccc3C(F)(F)F)CC2)n1` [Compound C47, 4-(2,6-Dimethyl-5-{5-[2-(trifluoromethyl)pyrimidin-4-yl]-1,3,4-oxadiazol-2-yl}pyrimidin-4-yl)-N-[2-(trifluoromethyl)phenyl]piperidine-1-carbothioamide] as the compound, how does the IC50 read?
Answer: The IC50 was 80.6 nM.

Question: Which IC50 does the source give for `Cc1nc(N)nc(C2CCN(C(=O)Nc3c(F)cccc3F)CC2)c1-c1nnc(-c2ccnc(C(F)(F)F)n2)o1` [Compound C48, 4-(2-Amino-6-methyl-5-{5-[2-(trifluoromethyl)pyrimidin-4-yl]-1,3,4-oxadiazol-2-yl}pyrimidin-4-yl)-N-(2,6-difluorophenyl)piperidine-1-carboxamide] here?
Answer: Its IC50 is 63.9 nM.

Question: For `Cc1nc(N)nc(C2CCN(C(=O)Nc3c(F)cccc3C(F)(F)F)CC2)c1-c1nnc(-c2ccnc(C(F)(F)F)n2)o1` [Compound C49, 4-(2-Amino-6-methyl-5-{5-[2-(trifluoromethyl)pyrimidin-4-yl]-1,3,4-oxadiazol-2-yl}pyrimidin-4-yl)-N-[2-fluoro-6-(trifluoromethyl)phenyl]piperidine-1-carboxamide], which IC50 is on record?
Answer: Its IC50 is 23.3 nM.
